PMC4303209, “A novel phosphatidylinositol 3-kinase (PI3K) inhibitor directs a potent FOXO-dependent, p53-independent cell cycle arrest phenotype characterized by the differential induction of a subset of FOXO-regulated genes” (Breast Cancer Research : BCR, 2014)

System: MCF-7 breast cancer cells
Assay: Microarray gene expression analysis (Agilent whole human genome 4 x 44K; compound vs DMSO, LIMMA log2 fold change)
Format: cell-based
Settings: cell cycle genes

**Q.** Which results are given for `Oc1cccc(-c2nc(N3CCOCC3)c3oc4ncccc4c3n2)c1` [PI-103]?
**A.** STAT5A log2FC (Gene 6776): 0.39; STAT5B log2FC (Gene 6777): 0.11; AURKA log2FC (Gene 6790): -0.02; STK10 log2FC (Gene 6793): -0.32; AURKC log2FC (Gene 6795): 0.0218; SUV39H1 log2FC (Gene 6839): -0.50; TACC1 log2FC (Gene 6867): 0.0342; ADAM17 log2FC (Gene 6868): 0.53; TAF1 log2FC (Gene 6872): 0.15; TAL1 log2FC (Gene 6886): -0.57; TBX3 log2FC (Gene 6926): -0.69; TCF3 log2FC (Gene 6929): 0.0643; DYNLT3 log2FC (Gene 6990): -0.24; DYNLT1 log2FC (Gene 6993): -0.03; TERF1 log2FC (Gene 7013): 0.38; TERF2 log2FC (Gene 7014): -0.16; TFAP4 log2FC (Gene 7023): 0.39; NR2F2 log2FC (Gene 7026): 0.34; TFDP1 log2FC (Gene 7027): -0.56; TFDP2 log2FC (Gene 7029): 0.41; TGFB1 log2FC (Gene 7040): -0.44; THBS1 log2FC (Gene 7057): -0.91; TNF log2FC (Gene 7124): -1.87; TNFAIP3 log2FC (Gene 7128): -0.85; TOP2A log2FC (Gene 7153): 0.91; TOP2B log2FC (Gene 7155): 0.99; TOP3A log2FC (Gene 7156): -0.05; TP53 log2FC (Gene 7157): 0.0569; TP53BP2 log2FC (Gene 7159): 0.35; TPR log2FC (Gene 7175): 0.74; TSC1 log2FC (Gene 7248): 0.42; TSC2 log2FC (Gene 7249): -0.11; TSG101 log2FC (Gene 7251): 0.39; TTK log2FC (Gene 7272): 1.59; TUBG1 log2FC (Gene 7283): -0.33; UBA52 log2FC (Gene 7311): 0.31; UBB log2FC (Gene 7314): 0.0362; UBC log2FC (Gene 7316): 0.33; UBE2B log2FC (Gene 7320): 0.65; UBE2D1 log2FC (Gene 7321): 0.50; UBE2E1 log2FC (Gene 7324): 0.0118; UBE2I log2FC (Gene 7329): -0.30; WEE1 log2FC (Gene 7465): 0.0429; WNT5A log2FC (Gene 7474): 0.13; WNT10B log2FC (Gene 7480): -0.49; WNT9A log2FC (Gene 7483): 0.04; XPC log2FC (Gene 7508): 0.59; XRCC2 log2FC (Gene 7516): -0.60; YWHAG log2FC (Gene 7532): -0.88; ZNF16 log2FC (Gene 7564): 0.34; ZBTB17 log2FC (Gene 7709): 0.30; PTP4A1 log2FC (Gene 7803): -0.61; EVI5 log2FC (Gene 7813): 0.44; ALMS1 log2FC (Gene 7840): 0.65; NR4A3 log2FC (Gene 8013): 0.34; NUP214 log2FC (Gene 8021): -0.41; FOSL1 log2FC (Gene 8061): -2.53; CUL5 log2FC (Gene 8065): -0.23; YEATS4 log2FC (Gene 8089): 1.06; HMGA2 log2FC (Gene 8091): -1.51; CHAF1B log2FC (Gene 8208): -0.0543; CLTCL1 log2FC (Gene 8218): -0.03; USP9X log2FC (Gene 8239): 0.62; SMC1A log2FC (Gene 8243): 0.14; CDC7 log2FC (Gene 8317): 0.32; RAD54L log2FC (Gene 8438): -0.18; CUL4B log2FC (Gene 8450): 0.75; CUL4A log2FC (Gene 8451): 0.38; CUL1 log2FC (Gene 8454): 0.21; KLF11 log2FC (Gene 8462): 1.20; OFD1 log2FC (Gene 8481): 0.89; PKP4 log2FC (Gene 8502): 0.15; GAS7 log2FC (Gene 8522): -0.00153; DGKZ log2FC (Gene 8525): -0.37; CAMK1 log2FC (Gene 8536): -0.0329; CDC14B log2FC (Gene 8555): 0.10; CDK10 log2FC (Gene 8558): 0.17; MADD log2FC (Gene 8567): 0.75; DYNLL1 log2FC (Gene 8655): -1.05; TNKS log2FC (Gene 8658): 0.82; BECN1 log2FC (Gene 8678): 0.35; CDC23 log2FC (Gene 8697): 0.30; CRADD log2FC (Gene 8738): -0.08; CCNK log2FC (Gene 8812): -0.50; BANF1 log2FC (Gene 8815): -0.32; CDK5R1 log2FC (Gene 8851): -0.33; IER3 log2FC (Gene 8870): -2.26; SPHK1 log2FC (Gene 8877): -0.42; CDC16 log2FC (Gene 8881): 0.66; CCNA1 log2FC (Gene 8900): 0.11; TIMELESS log2FC (Gene 8914): 0.20; PHOX2B log2FC (Gene 8929): -0.0327; MBD4 log2FC (Gene 8930): 0.29; BTRC log2FC (Gene 8945): 0.17; WASL log2FC (Gene 8976): 0.10; RNF8 log2FC (Gene 9025): -0.06; PRC1 log2FC (Gene 9055): 0.34; USP2 log2FC (Gene 9099): -0.07; USP8 log2FC (Gene 9101): 0.76; SMC3 log2FC (Gene 9126): 1.35; EXO1 log2FC (Gene 9156): -0.12; ARHGEF2 log2FC (Gene 9181): -0.51; ZW10 log2FC (Gene 9183): 0.27; BUB3 log2FC (Gene 9184): 0.44; NOLC1 log2FC (Gene 9221): -0.67; CCPG1 log2FC (Gene 9236): 1.09; MAPKAPK2 log2FC (Gene 9261): -0.19; PIWIL1 log2FC (Gene 9271): 0.0443; RECQL5 log2FC (Gene 9400): 0.48; ROCK2 log2FC (Gene 9475): 0.20; PSMF1 log2FC (Gene 9491): -0.34; VPS4B log2FC (Gene 9525): 0.64; CLOCK log2FC (Gene 9575): 0.03; MAD2L1BP log2FC (Gene 9587): -0.27; ARHGEF10 log2FC (Gene 9639): 0.19; MDC1 log2FC (Gene 9656): -0.21; CEP135 log2FC (Gene 9662): 0.43; KIAA0430 log2FC (Gene 9665): 0.91; CROCC log2FC (Gene 9696): -0.11; ESPL1 log2FC (Gene 9700): 0.72; CEP57 log2FC (Gene 9702): 1.20; UTP14C log2FC (Gene 9724): 0.24; KNTC1 log2FC (Gene 9735): 0.58; RASSF2 log2FC (Gene 9770): 0.56; CKAP5 log2FC (Gene 9793): 0.44; SFI1 log2FC (Gene 9814): 0.17; RB1CC1 log2FC (Gene 9821): 1.48; MELK log2FC (Gene 9833): 0.25; GINS1 log2FC (Gene 9837): -0.84; MAGI2 log2FC (Gene 9863): 0.33; TLK1 log2FC (Gene 9874): 0.44; POM121 log2FC (Gene 9883): -0.58; KLHL21 log2FC (Gene 9903): 0.49; DCLRE1A log2FC (Gene 9937): 0.44; USP3 log2FC (Gene 9960): 0.29; THOC1 log2FC (Gene 9984): 0.38; DMTF1 log2FC (Gene 9988): 0.44; CASP8AP2 log2FC (Gene 9994): 0.61; PDCD6IP log2FC (Gene 10015): 0.60; BCL2L11 log2FC (Gene 10018): 0.09; CHAF1A log2FC (Gene 10036): -0.38; PARP3 log2FC (Gene 10039): 0.48; TOM1L1 log2FC (Gene 10040): 0.60; SMC4 log2FC (Gene 10051): 0.76; ACTR2 log2FC (Gene 10097): -0.39; RAD50 log2FC (Gene 10111): 0.41; KIF20A log2FC (Gene 10112): 0.59; OPTN log2FC (Gene 10133): 0.73; AKAP9 log2FC (Gene 10142): 1.37; PSME3 log2FC (Gene 10197): -1.22; MPHOSPH9 log2FC (Gene 10198): 0.40; MPHOSPH6 log2FC (Gene 10200): -0.88; MAEA log2FC (Gene 10296): -0.11; PAK4 log2FC (Gene 10298): -0.42; NPM2 log2FC (Gene 10361): -0.11; HMG20B log2FC (Gene 10362): 0.52; CITED2 log2FC (Gene 10370): 2.31
